According to US7442692B2, “Indanyl-piperazine compounds” (Les Laboratoires Servier, priority 2005, dated 2008):
Structures can show the parent of a compound that is named as a salt.

Columns and labels:
[1] = molecular target: T1, serotonin (5-HTT) reuptake site (Rattus norvegicus, UniProt P31652); assay: Affinity for serotonin reuptake sites in the rat ([3H]-citalopram competition); type: binding; settings: rat frontal cortex membranes, read-out: pKi r5-HTT (converted)
T1 construct: from tissue; host or cells: rat frontal cortex membranes
Protocol: The cortices are homogenised using a Polytron in 40 volumes (weight/volume) of cold Tris-HCl (50 mM, pH 7.4) incubation buffer containing 120 mM NaCl and 5 mM KCl and are then centrifuged for a first time. The sediment is resuspended in the same buffer, incubated for 10 minutes at 37° C. and then re-centrifuged. The membranes are washed a further two times and the sediment is then resuspended in an appropriate volume of incubation buffer. […] Non-specific binding is determined with 10 μM fluoxetine. At the end of the incubation period, the samples are filtered through Unifilter GF/B type filters pretreated with PEI (0.5%) and washed several times with the incubation buffer. The radioactivity retained on the filters is counted after addition of scintillation liquid, with the aid of a scintillation counter. […] The results are expressed as pKi=−log Ki.

human NK1 receptors = molecular target: T2, human NK1 receptors (Homo sapiens, UniProt P25103); assay: hNK1 binding ([3H]-Substance P competition on IM9 human lymphoblast cells); settings: read-out: pKi NK1 (converted)
T2 construct: IM9 human lymphoblast cells endogenously expressing NK1 receptors; endogenous in cells; host or cells: IM9 human lymphoblast cells
Protocol: IM9 human lymphoblast cells endogenously expressing NK1 receptors are centrifuged and taken up in the incubation buffer containing 50 mM TRIS, 150 mM NaCl, 4 mM CaCl2, protease inhibitors at 1/100^e (Cocktail SIGMA P8340) and 0.2% BSA. The volume of incubation buffer is determined so as to obtain a concentration of 5×10^6 cells/ml. […] Non-specific binding is determined in the presence of 1 μM GR 205171.
At the end of the incubation period, the samples ate filtered through Unifilter GF/B type filters pretreated with PEI (0.1%) and washed several times with the filtration buffer ([…], 150 mM NaCl, 4 mM CaCl2). The radioactivity retained on the filters is measured by counting after addition of scintillation liquid to the filters. The counts are […] analysed by non-linear regression, allowing the isotherms to be plotted and the IC50 values to be determined. […] The results are expressed as pKi (−log Ki).

T2 sequence (P25103 whole entry): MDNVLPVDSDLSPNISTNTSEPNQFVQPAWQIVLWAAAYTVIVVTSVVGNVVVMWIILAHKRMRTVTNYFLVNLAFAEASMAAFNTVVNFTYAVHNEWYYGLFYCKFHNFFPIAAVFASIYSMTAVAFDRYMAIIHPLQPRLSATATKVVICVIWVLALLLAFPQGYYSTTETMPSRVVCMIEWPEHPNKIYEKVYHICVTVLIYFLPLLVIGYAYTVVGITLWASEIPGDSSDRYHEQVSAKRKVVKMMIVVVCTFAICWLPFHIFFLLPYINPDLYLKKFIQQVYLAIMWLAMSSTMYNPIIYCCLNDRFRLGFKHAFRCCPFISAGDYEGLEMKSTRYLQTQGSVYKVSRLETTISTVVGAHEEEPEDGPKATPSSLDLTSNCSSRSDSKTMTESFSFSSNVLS
T1 sequence (P31652 whole entry): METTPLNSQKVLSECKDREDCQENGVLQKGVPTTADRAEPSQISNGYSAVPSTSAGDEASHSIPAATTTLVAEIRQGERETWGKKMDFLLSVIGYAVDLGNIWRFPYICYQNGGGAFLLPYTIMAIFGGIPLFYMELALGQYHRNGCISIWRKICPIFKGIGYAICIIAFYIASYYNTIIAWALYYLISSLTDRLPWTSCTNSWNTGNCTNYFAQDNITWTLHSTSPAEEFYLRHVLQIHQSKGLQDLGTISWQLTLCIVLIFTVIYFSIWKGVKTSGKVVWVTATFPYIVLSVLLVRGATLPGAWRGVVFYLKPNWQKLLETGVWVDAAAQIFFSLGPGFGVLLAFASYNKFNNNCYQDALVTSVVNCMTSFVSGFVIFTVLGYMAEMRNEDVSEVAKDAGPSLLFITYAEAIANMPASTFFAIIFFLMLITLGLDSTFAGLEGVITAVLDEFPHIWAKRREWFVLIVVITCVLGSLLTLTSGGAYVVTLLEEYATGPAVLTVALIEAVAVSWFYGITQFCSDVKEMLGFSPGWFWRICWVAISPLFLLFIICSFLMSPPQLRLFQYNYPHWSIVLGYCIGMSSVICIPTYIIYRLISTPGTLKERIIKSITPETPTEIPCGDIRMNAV

| Compound | Ki [1] | Ki (human NK1 receptors) |
| --- | --- | --- |
| CN(Cc1cc(Cl)cc(Cl)c1)C(=O)C1(N2CCNCC2)CCc2ccccc21 (racemic) [Example 85, (1RS)-N-(3,5-Dichlorobenzyl)-N-methyl-1-(1-piperazinyl)-1-indan-carboxamide dihydrochloride] | 93.3 nM |  |
| O=C(NCc1cc(C(F)(F)F)cc(C(F)(F)F)c1)C1(N2CCNCC2)Cc2ccccc2C1 [Example 5, N-[3,5-Bis(trifluoromethyl)benzyl]-2-(1-piperazinyl)-2-indan-carboxamide dihydrochloride] |  | 398 nM |
| Cc1cc(C)cc(COCC2(N3CCNCC3)Cc3ccccc3C2)c1 [Example 3, 1-[2-(3,5-Dimethylbenzyloxymethyl)indan-2-yl]piperazine dihydrochloride] | 63.1 nM | 162 nM |
| Brc1cc(Br)cc(COCC2(N3CCNCC3)CCc3ccccc32)c1 (racemic) [Example 1, 1-[(1RS)-1-(3,5Dibromobenzyloxymethyl)indan-1-yl]piperazine dihydrochloride] | 245 nM | 3.39 nM |
| CN(Cc1cc(F)cc(C(F)(F)F)c1)C(=O)C1(N2CCNCC2)CCc2ccccc21 (racemic) [Example 69, (1RS)-N-[3-Fluoro-5(trifluoromethyl)benzyl]-N-methyl-1-(1-piperazinyl)-1-indancarboxamide dihydrochloride] | 151 nM |  |
| CN(Cc1cc(F)cc(Cl)c1)C(=O)C1(N2CCNCC2)Cc2ccccc2C1 [Example 135, N-(3-Chloro-5-fluorobenzyl)-N-methyl-2-(1-piperazinyl)-2-indan-carboxamide dihydrochloride] | 43.7 nM |  |
| Cc1cc(C)cc(COCC2(N3CCNCC3)CCc3ccccc32)c1 (racemic) [Example 2, 1-[(1RS)-1-(3,5-Dimethylbenzyloxymethyl)indan-1-yl]piperazine dihydrochloride] | 53.7 nM | 18.2 nM |

Other lines, results leading:

| Ki [1] | Ki (human NK1 receptors) | Compound |
| --- | --- | --- |
|  | 490 nM | CN(Cc1ccccc1)C(=O)C1(N2CCNCC2)CCc2ccccc21 (racemic) [Example 11, (1RS)-N-Benzyl-N-methyl-1-(1-piperazinyl)-1-indancarboxamide dihydrochloride] |
|  | 513 nM | CN(Cc1cc(Cl)cc(Cl)c1)CC1(N2CCNCC2)Cc2ccccc2C1 [Example 79, N-(3,5-Dichlorobenzyl)N-methyl-[2-(1-piperazinyl)indan-2-yl]-methanamine trihydrochloride] |
| 3.24 nM |  | Fc1cc(F)cc(COCC2(N3CCNCC3)CCc3ccccc32)c1 (racemic) [Example 70, (1RS)-1-[1-(3,5Difluorobenzyloxymethyl)indan-1-yl]piperazine dihydrochloride] |
| 33.9 nM |  | CN(Cc1cc(F)cc(F)c1)C(=O)C1(N2CCNCC2)CCc2ccccc21 (racemic) [Example 68, (1RS)-N-(3,5Difluorobenzyl)-N-methyl-1-(1-piperazinyl)-1-indan-carboxamide dihydrochloride] |
